# Results published in US8481678B2, “Peptide-based tooth whitening reagents” (E I du Pont de Nemours and Company, priority 2009, dated 2013).
# Where no end group is shown, it is not given here. The star is where a group is joined. Biotin = O=C1N[C@H]2[C@H](CS[C@H]2CCCCC(=O)*)N1
# Tested on: not listed separately
# Assay: Phage ELISA, polished enamel-binding assay
# Set-up: species or system bovine
# Settings: phage ELISA on polished enamel, over 10^10 pfu phage; no-phage control 0.112
# Description: A total of 11 selected phage candidates (Example 3) were used in a phage ELISA experiment. Purified phage lysates were used for binding to the enamel blocks using an anti-M13 phage antibody conjugated to horseradish-peroxidase, followed by the addition of chromogenic agent TMB, obtained from Pierce Biotechnology (Rockford, Ill.). The plates were read at A450 nm.
# For each phage candidate to be tested, the polished and unpolished enamel blocks were incubated for 1 h at room temperature with 200 μL of blocking buffer, consisting of 2% non-fat dry milk (Schleicher & Schuell, Inc.) in TBS. […] The tube was rinsed 6 times with wash buffer consisting of TBST-0.05%. The wells were filled with 200 μL of TBST-0.5% containing 1 mg/mL BSA and then 10 μL (over 10^10 pfu) of purified phage stock was added. The samples were incubated at room temperature for 60 min with slow shaking. The non-binding phage was removed by washing 6 times with TBST-0.5%. […] The conjugate solution was removed and was washed 6 times with TBST-0.5%. […] “BoEn P” means bovine polished enamel and BoEn means bovine enamel.
row,Substance,O.D. at 450 nm
1,EPPTRTRVNNHTVTVQAQQH (Tooth-binding peptide) [BoEn P2],0.641
2,GYCLRGDEPAVCSG (Tooth-binding peptide) [BoEn P3],0.665
3,NFCETQLDLSVCTV (Tooth-binding peptide) [BoEn P5],0.797
4,NTCQPTKNATPCSA (Tooth-binding peptide) [BoEn P6],0.83
5,THNMSHFPPSGHPKRTAT (Tooth-binding peptide) [BoEn P8],2.02

# Tested on: not given
# Assay: not given
# Settings: 20 μM biotinylated peptide; mean of at least three replicates; no-peptide control 0.066
# From the text: Enzyme-linked immunosorbent assay (ELISA) was used to evaluate the cellulose acetate coated iron oxide particle-binding affinity of the biopanning selected peptide candidates (Example 6; biotinylated peptides phage ID: CA-1 to CA-4). The identified peptides were synthesized using a standard solid-phase synthesis method (see U.S. patent application Ser. No. 11/251/715). All peptides were modified to contain a biotinylated lysine residue at the C-terminus of the amino acid binding sequence for detection purposes (Table 6).
# The cellulose acetate-coated iron oxide particles were dispersed in water at 2.5 mg per mL. […] The particle dispersion (1 mL each) was then centrifuged for 2 min at 5000 rpm, the aqueous was removed by aspirating it out of each tube. The tubes were incubated in SUPERBLOCK® blocking buffer (Pierce Chemical Company, Rockford, Ill.; Prod. #37535) for 1 hour at room temperature (˜22° C.), followed by 3 washes with TBST (TBS in 0.05% TWEEN® 20). Then tubes were then rinsed 3 times with wash buffer consisting of TBST-0.05% using the same centrifugation and aspiration methods. Peptide binding buffer consisting of 20 μM biotinylated peptides in TBST and 1 mg/mL BSA was added to the particles and incubated for 1 hour at room temperature (˜22° C.), followed by 6 TBST washes. Then, the streptavidin-alkaline phosphatase (AP) conjugate (Pierce Chemical Co., Rockford, Ill.) was added to each well at standard concentration and incubated for 1 hour at room temperature, followed by 6 times of washes with TBST. All particles were then transferred to new tubes and then the color development and the absorbance measurements were performed following the manufacturer's standard protocols.
row,Substance,O.D. at 405 nm
1,ATTPPSGKAAAHSAARQKGN-K-biotin-NH2 [CA-1],0.269
2,DTIHPNKMKSPSSPL-K-biotin-NH2 [CA-2],0.207
3,NGNNHTDIPNRSSYTGGSFA-K-biotin-NH2 [CA-3],0.279
4,SDETGPQIPHRRPTW-K-biotin-NH2 [CA-4],0.141

# Tested on: pellicle-coated enamel substrates
# Assay: not given
# Settings: 20 μM synthetic biotinylated peptide, 30 min at 37° C.; normalized to DenP03; three replicates; no peptide −0.001
# Description: A total of 20 synthetic peptides were manufactured using sequences obtained from Table 14. Peptides were obtained from Synbiosci (Livermore, Calif.) and included an additional SSRP sequence (SEQ ID NO: 151) at the N-terminus and biotin labeled lysine at the C-terminus.
# Enamel substrates were cut to approx. 7 mm squares and mounted on wax mounting for incubation in the mouth for 30 min to form a pellicle coated surface. The pellicle-coated enamel substrates were removed from the wax backing and placed in well plates with the pellicle surface exposed as in Example 1. Each pellicle-coated substrate was incubated for 1 h at room temperature (˜22° C.) with 1 mL of blocking buffer, consisting of 1 mg/mL BSA in PBST (Pierce BupH™ #28372 with 0.1% TWEEN® 20). The blocking buffer was removed by aspirating the liquid out of each well. The tube was rinsed 2 times with wash buffer consisting of PBST. The wells were filled with 500 μL of 20 μM peptide solution which was prepared by diluting in blocking buffer. The samples were incubated for 30 min with slow shaking at 37° C. The non-binding peptide was removed by washing 6 times with PBST. Then, 500 μL of horseradish peroxidase/streptavidin conjugate (Pierce #22127), diluted 1:2000 in PBST, was added and incubated for 1 h at room temperature. The conjugate solution was removed and was washed 4 times with PBST.
# Each enamel substrate was removed from the well and washed again in a 15-mL test tube with 10 mL of PBST. Each enamel substrate was then mounted in a clean well plate with only the enamel surface exposed. A 1:1 solution of TMB substrate and H2O2 (200 μL), obtained from Pierce Biotechnology (Rockford, Ill.) was added to each well and the color was allowed to develop for between 10 to 20 min, typically for 15 min, at room temperature (˜22° C.). Then, 100 μL of solution from each well was transferred to a 96-well reading plate containing stop solution (100 μL of 2 M H2SO4) in each well. The A450 was measured using a microplate spectrophotometer (Molecular Devices, Sunnyvale, Calif.). […] Each sequence was tested with three replicate enamel coated pellicle substrates.
row,Substance,O.D. at 450 nm (normalized)
1,SSRPHKNENIMQYNVNDRWHITPAK(Biotin) [DenP32-A],1.135
2,SSRPTTYHYKNIYQESYQQRNPAVK(Biotin) [DenP3-A],1.000

# Tested on: pellicle-coated enamel substrates
# Assay: not given
# Settings: range of peptide concentrations, 2 h at 37° C., 4-MUP fluorescence; calculated from Scatchard plots
# From the text: The pellicle-coated enamel substrates were removed from the wax backing and placed in well plates with the pellicle surface exposed as in Example 1. […] The blocking buffer was removed by aspirating the liquid out of each well. The tube was rinsed 2 times with wash buffer consisting of PBST. […] The non-binding peptide was removed by washing 6 times with PBST. […] The conjugate solution was removed and was washed 4 times with PBST.
# Each enamel substrate was removed from the well and washed again in a 15-mL test tube with 10 mL of PBST. Each enamel substrate was then mounted in a clean well plate with only the enamel surface exposed.
row,Substance,MB50 [µM]
1,SSRPHKNENIMQYNVNDRWHITPAK(Biotin) [DenP32-A],25
2,SSRPTTYHYKNIYQESYQQRNPAVK(Biotin) [DenP3-A],28
